Measurements from PubChem BioAssay (NCI).
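Exposure lasted 48 hours, with cells grown in 96-well plates and compounds tested at five concentrations. The concentration for full growth arrest is given as TGI.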

What was measured:
Assay in all cases: NCI tumour cell line growth inhibition, 48 h
RXF 393 renal = test system: RXF 393 renal
786-0 renal = test system: 786-0 renal
HCT-15 colon = test system: HCT-15 colon
COLO 205 colon = test system: COLO 205 colon
RPMI-8226 leukemia = test system: RPMI-8226 leukemia
CAKI-1 renal = test system: CAKI-1 renal
SNB-19 CNS = test system: SNB-19 CNS
BT-549 breast = test system: BT-549 breast
EKVX NSCLC = test system: EKVX NSCLC
PC-3 prostate = test system: PC-3 prostate

SMILES	TGI (RXF 393 renal)	TGI (786-0 renal)	TGI (HCT-15 colon)	TGI (COLO 205 colon)	TGI (RPMI-8226 leukemia)	TGI (CAKI-1 renal)	TGI (SNB-19 CNS)	TGI (BT-549 breast)	TGI (EKVX NSCLC)	TGI (PC-3 prostate)
COc1ccc(N[C@H](CSc2ccc(C)cc2)c2ccc(F)cc2)cc1	> 100 µM	> 100 µM	> 100 µM	> 100 µM	> 100 µM	> 100 µM	> 100 µM	> 100 µM	> 100 µM	> 100 µM
O=c1c2ncn(C3CC(O)C(CO)O3)c2nnn1Cc1ccccc1[N+](=O)[O-] (stereo not given)	94.1 µM	> 100 µM	> 100 µM	> 100 µM	> 100 µM	> 100 µM	> 100 µM	> 100 µM	> 100 µM	> 100 µM
